According to article PMC8758724, “Molecular mechanism of agonism and inverse agonism in ghrelin receptor” (Nature Communications, 2022):
“And” between values parts separate entries of the source, which are not always exact repeats. Equal entries are not always repeated. “Also recorded” adds a separate entry of the source. No end group written: not given here. *: point of attachment. Octanoyl = CCCCCCCC(=O)*

System: ghrelin receptor mutants
Experiment: NanoBiT-G-protein dissociation, ghrelin receptor mutants, HEK293T cells, Gαio-LgBiT/Gγ-SmBiT, 3–5 min
Type: cell-based, human
Conditions: for ΔpEC50 (from the WT): single replicates
Experimental: Bars represent differences in calculated potency (pEC50) of ghrelin for mutations relative to the WT ghrelin receptor. Data are colored according to the extent of the effect. […], **P < 0.01 and ***P < 0.001. ns no significant difference, nd not detected. All data were analyzed by one-way analysis of variance (ANOVA) followed by Dunnett’s multiple comparison test, compared with the response of WT (P = 0.002, P = 0.002, P = 0.015, P < 0.001, P < 0.001, P = 0.732, P < 0.001, P = 0.843, P = 0.012, P < 0.001, P = 0.003, P < 0.001, P < 0.001 and P < 0.001 from left to right). […] See also Supplementary Figs. 6 and 7. d Detailed interaction of the octanoyl group of Ser^+3 with the key residues from cavity II and salt bridges between E124^3.33 and R283^6.55 are clearly observed in the ghrelin-bound structure.
For cryo-EM constructs, the full-length of wild-type human ghrelin receptor was subcloned into pFastBac1 vector with an N-terminal FLAG tag and C-terminal 10×His tag. We used the NanoBiT tethering strategy, in which the C-terminus of the ghrelin receptor was directly attached to the LgBiT subunit followed by a TEV protease cleavage site and a double MBP tag. Gβ1 was fused with a C-terminal HiBiT, together with Gγ2 were cloned into pFastBac dual vector. An engineered human Gαo1 with Gαo1 H domain deletion, named miniGαo1 was cloned into pFastBac1 according to published literature. The ghrelin-induced ghrelin receptor activity was measured by NanoBiT-G-protein dissociation assay using a chimeric Gαio protein according to the previous publication except for replacement Gαqo with Gαio[54]. The Gαio were generated by replacing the six amino acids of the C-terminal of Gαi with those from GαoA1. Other constructs including the full-length and various site-directed mutagenesis human ghrelin receptors were cloned into pcDNA3.1 vector for NanoBiT-G-protein dissociation assay. Ghrelin receptor, miniGαo1, and Gβ1γ2 were co-expressed in Sf9 insect cells (Expression System) using the Bac-to-Bac baculovirus expression system (ThermoFisher). The cell pellets were collected by centrifugation 48 h post infection and stored at −80 °C until use.
G-protein activation was detected by a NanoBiT-G-protein dissociation assay. In brief, HEK293T cells were plated in each well of a six-well plate at a concentration of 0.3 million/ml (2 mL per well). Plasmid transfection was performed with a mixture of 400 ng Gαio-LgBiT, 500 ng Gγ-SmBiT, 500 ng Gβ, 600 ng ghrelin receptor by Lipofectamine 2000 (ThermoFisher Scientific) in 200 μL of Opti-MEM (Gibco). After 1 day of transfection, cells in the six-well plate were digested and resuspended in complete medium DMEM (5% FBS, 1% antibiotic) and plated in a 96-well flat-bottomed white microplate. After 24 h, the cells were washed twice with D-PBS and incubated in 40 μL of 5 μM coelenterazine 400a (Maokangbio) solution diluted 0.01% BSA and 5 mM HEPES (pH 7.5)-containing HBSS (assay buffer) for 1 h at room temperature. Baseline luminescence was measured using a luminescent microplate reader (Tecan). Ghrelin (5×, diluted in the assay buffer) was added to the cells (10 μL) and incubated for 3–5 min at room temperature before the second measurement. The ligand-induced signal ratio was normalized to the baseline luminescence and fold-change signals over vehicle treatment were used to show G-protein dissociation response.

Substance: ghrelin: endogenous agonist, 28-amino acid peptide with octanoyl modification at the side chain of Ser+3 (GSS(Octanoyl)FLSPEHQRVQQRKESKKPPAKLQPR; UniProt Q9UBU3 24-51, looked up)
- ΔpEC50 (from the WT) (E124A): -1.682 and -1.692 and -1.769
- ghrelin-induced activation, effect of mutation (E124^3.33A): almost abolished the activity of the ghrelin receptor
- ghrelin-induced activation, effect of mutation (E124^3.33A, listed as ghrelin peptide): remarkably reduced the activation potency
- ΔpEC50 (from the WT) (F38A): -0.347 and -0.237 and -0.393
- ghrelin-induced activation, effect of mutation (F279^6.51A): decreased the activation potency; also recorded: almost abolished the activity of the ghrelin receptor
- ΔpEC50 (from the WT) (F286A): -1.001 and -0.994 and -1.053
- ghrelin-induced activation, effect of mutation (F286^6.58A): decreased the receptor activation
- ΔpEC50 (from the WT) (F290A): -0.357 and -0.309 and -0.272
- ΔpEC50 (from the WT) (F309A): -0.421 and -0.648 and -0.344
- ghrelin-induced activation, effect of mutation (F309^7.39 mutant): impaired ghrelin-induced G-protein signaling
- ghrelin-induced activation, effect of mutation (F312^7.42A): decreased the activation potency; also recorded: impaired ghrelin-induced G-protein signaling
- ΔpEC50 (from the WT) (I178A): -0.256 and -0.542 and -0.472
- ghrelin-induced activation, effect of mutation (I178^4.60A): decreased the receptor activation
- ΔpEC50 (from the WT) (L181A): -0.146 and -0.068 and -0.114
- ΔpEC50 (from the WT) (L210A): -0.704 and -0.734 and -0.866
- ghrelin-induced activation, effect of mutation (L210^5.36A): decreased the receptor activation
- ΔpEC50 (from the WT) (M213A): -0.105 and -0.084 and -0.1
- ΔpEC50 (from the WT) (N305A): -0.736 and -0.893 and -0.758
- ghrelin-induced activation, effect of mutation (N305^7.35A): remarkably reduced the activation potency
- ΔpEC50 (from the WT) (Q302A): -0.891 and -1.104 and -1.015
- ghrelin-induced activation, effect of mutation (Q302^7.32 mutant): impaired ghrelin-induced G-protein signaling
- ΔpEC50 (from the WT) (R102A): -0.473 and -0.141 and -0.326
- ghrelin-induced activation, effect of mutation (R283^6.55A): almost abolished the activity of the ghrelin receptor
- ghrelin-induced activation, effect of mutation (R283^6.55A, listed as ghrelin peptide): almost abolished the efficacy
- ΔpEC50 (from the WT) (S123A): -0.29 and -0.222 and -0.285
- ΔpEC50 (from the WT) (V214A): -0.199 and -0.412 and -0.206
- ghrelin-induced activation, effect of mutation (W276^6.48A): decreased the activation potency; also recorded: almost abolished the activity of the ghrelin receptor
- ΔpEC50 (from the WT) (Y106A): -0.423 and -0.136 and -0.417
